The target in one test is c-MET (Homo sapiens, UniProt P08581). Put plainly: Enzymatic assay (ADP-Glo kinase reaction), c-MET. The note with it: 10 μM ATP, 60 min, ADP-GLO luminescence. The test is classed as biochemical. Put shortly:
(§1)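 For both AXL and c-MET, reactions in tyrosine kinase buffer used 0.2 μg/μL poly(Glu4,Tyr1) and 10 μM ATP with serially diluted inhibitor, 60 min at room temperature. ADP formed was read by ADP-Glo luminescence after 40 min reagent incubation.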

Another test addresses T1, AXL (Homo sapiens, UniProt P30530).
T1 sequence (P30530 26-894): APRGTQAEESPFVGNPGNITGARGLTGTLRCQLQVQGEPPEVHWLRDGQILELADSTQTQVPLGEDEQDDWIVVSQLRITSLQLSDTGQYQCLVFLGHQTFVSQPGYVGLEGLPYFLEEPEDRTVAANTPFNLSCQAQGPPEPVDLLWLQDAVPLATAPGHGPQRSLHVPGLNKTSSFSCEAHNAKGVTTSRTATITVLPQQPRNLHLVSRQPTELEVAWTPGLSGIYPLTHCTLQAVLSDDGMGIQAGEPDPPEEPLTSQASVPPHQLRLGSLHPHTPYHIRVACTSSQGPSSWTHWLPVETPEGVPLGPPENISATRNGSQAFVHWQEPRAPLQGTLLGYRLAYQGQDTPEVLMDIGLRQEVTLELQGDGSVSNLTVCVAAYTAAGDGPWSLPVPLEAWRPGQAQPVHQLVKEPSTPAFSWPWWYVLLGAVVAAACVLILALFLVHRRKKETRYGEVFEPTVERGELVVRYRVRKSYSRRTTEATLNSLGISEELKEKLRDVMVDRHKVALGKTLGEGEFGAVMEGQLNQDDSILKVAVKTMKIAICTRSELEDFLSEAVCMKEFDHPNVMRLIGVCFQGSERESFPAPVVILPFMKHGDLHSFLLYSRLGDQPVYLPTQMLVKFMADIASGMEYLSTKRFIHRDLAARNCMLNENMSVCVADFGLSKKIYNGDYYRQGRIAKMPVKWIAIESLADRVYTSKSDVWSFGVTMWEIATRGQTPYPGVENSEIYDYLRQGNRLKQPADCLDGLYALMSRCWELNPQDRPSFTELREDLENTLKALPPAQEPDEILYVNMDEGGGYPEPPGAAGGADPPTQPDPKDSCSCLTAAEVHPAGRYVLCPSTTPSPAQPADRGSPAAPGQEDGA
Put plainly: Enzymatic assay (ADP-Glo kinase reaction), AXL. Format: biochemical. The note with it: 10 μM ATP, 60 min, ADP-GLO luminescence. In a few lines: as §1
In general terms: ADP-Glo first removes unused ATP, then detects ADP through luciferase.

A further test concerns the target T2, MER (Homo sapiens, UniProt Q12866).
T2 sequence (Q12866 21-999): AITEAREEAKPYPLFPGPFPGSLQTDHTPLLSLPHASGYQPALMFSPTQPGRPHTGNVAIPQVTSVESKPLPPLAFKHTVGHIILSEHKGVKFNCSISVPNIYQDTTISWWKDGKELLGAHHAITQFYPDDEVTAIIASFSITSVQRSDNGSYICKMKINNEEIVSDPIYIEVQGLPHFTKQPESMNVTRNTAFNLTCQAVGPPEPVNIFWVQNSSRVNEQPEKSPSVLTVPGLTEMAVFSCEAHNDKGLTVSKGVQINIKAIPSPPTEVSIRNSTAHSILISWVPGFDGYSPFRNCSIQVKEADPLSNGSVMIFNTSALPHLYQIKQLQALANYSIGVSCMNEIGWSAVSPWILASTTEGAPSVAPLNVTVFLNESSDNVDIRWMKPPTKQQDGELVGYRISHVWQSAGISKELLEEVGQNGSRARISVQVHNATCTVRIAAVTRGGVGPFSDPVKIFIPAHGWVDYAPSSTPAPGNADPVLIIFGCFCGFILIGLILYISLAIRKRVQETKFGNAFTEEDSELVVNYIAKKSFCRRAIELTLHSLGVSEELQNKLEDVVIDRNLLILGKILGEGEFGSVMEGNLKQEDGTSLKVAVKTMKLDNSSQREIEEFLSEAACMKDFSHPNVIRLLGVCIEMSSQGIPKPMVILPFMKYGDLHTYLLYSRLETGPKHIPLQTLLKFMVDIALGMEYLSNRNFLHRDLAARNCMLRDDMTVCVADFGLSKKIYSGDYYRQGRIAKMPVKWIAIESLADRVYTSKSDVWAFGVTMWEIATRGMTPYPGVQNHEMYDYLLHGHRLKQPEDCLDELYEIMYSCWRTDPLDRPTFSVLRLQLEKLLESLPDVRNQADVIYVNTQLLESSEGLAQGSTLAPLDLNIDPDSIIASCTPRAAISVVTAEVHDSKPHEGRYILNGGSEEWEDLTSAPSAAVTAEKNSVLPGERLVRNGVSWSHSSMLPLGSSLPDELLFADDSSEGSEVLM
Put plainly: Enzymatic assay (ADP-Glo kinase reaction), MER. The test is classed as biochemical. The note with it: 10 μM ATP, 60 min, ADP-GLO luminescence. Put shortly:
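ADP-Glo luminescence assay of MER in tyrosine kinase buffer with 0.2 μg/μL poly(Glu4,Tyr1) substrate and 10 μM ATP. Serially diluted inhibitor reacted 60 min at room temperature. IC50 taken from luminescence after ADP-Glo and detection steps.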

The next test relates to HCC827OR. Put plainly: Cell viability assay (CellTiter-Glo 2.0), osimertinib-resistant HCC827/OR cells. The test is classed as cell-based, human. The source says: (§2) To explore c-MET and AXL mechanisms of EGFR TKI resistance, resistant cells of the EGFR TKI hypersensitive EGFR exon 19 mutant NSCLC cell line, HCC827 and PC9 were generated by exposing these cells to increasing concentrations of EGFR TKI for over 3 months.
(§3) Gefitinib-resistant cells were referred to as HCC827/GR. […] Osimertinib-resistant cells were referred to as HCC827/OR.
Background: Cellular ATP, detected with luciferase, serves as a proxy for viable cell number.

Another test has as its system PC9ER. Put plainly: Cell viability assay (CellTiter-Glo 2.0), erlotinib-resistant PC9/ER cells. Format: cell-based. The note with it: 72 h, combination of EGFR TKI and inhibitor of Formula (I), read-out: Relative cell viability, IC50 (nM) PC9ER.
Text: as §2, §3

A further test has as its system HCC827ER. Description: Cell viability assay (CellTiter-Glo 2.0), erlotinib-resistant HCC827/ER cells. Format: cell-based, human. The note with it: 72 h, combination of EGFR TKI and inhibitor of Formula (I), read-out: Relative cell viability, IC50 (nM) HCC827ER.
Text: as §2, §3

The test system of another test is HCC827GR. Put plainly: Cell viability assay (CellTiter-Glo 2.0), gefitinib-resistant HCC827/GR cells. Format: cell-based, human. The note with it: 72 h, combination of EGFR TKI and inhibitor of Formula (I), read-out: Relative cell viability, IC50 (nM) HCC827GR.
Text: as §2
The human cell line HCC827 was purchased from the American Type Culture Collection (Manassas, VA), and the PC9 cell line was obtained from RIKEN Cell Bank (Ibaraki, Japan). […] Gefitinib-resistant cells were referred to as HCC827/GR. […] Osimertinib-resistant cells were referred to as HCC827/OR.
(§4) Cell viability assays were carried out by plating 1,000 cells per well of HCC827 or PC9 resistant cells, respectively, into white transparent-bottom 384-well plates. The cells were treated with each TKI across a 10-dose range from 1 nM to 10,000 nM. After 72 h of drug treatment, cell viability was measured using the CellTiter-Glo 2.0 assay (Promega, Madison, WI).
as §4

Sequence of c-MET (P08581 25-1390): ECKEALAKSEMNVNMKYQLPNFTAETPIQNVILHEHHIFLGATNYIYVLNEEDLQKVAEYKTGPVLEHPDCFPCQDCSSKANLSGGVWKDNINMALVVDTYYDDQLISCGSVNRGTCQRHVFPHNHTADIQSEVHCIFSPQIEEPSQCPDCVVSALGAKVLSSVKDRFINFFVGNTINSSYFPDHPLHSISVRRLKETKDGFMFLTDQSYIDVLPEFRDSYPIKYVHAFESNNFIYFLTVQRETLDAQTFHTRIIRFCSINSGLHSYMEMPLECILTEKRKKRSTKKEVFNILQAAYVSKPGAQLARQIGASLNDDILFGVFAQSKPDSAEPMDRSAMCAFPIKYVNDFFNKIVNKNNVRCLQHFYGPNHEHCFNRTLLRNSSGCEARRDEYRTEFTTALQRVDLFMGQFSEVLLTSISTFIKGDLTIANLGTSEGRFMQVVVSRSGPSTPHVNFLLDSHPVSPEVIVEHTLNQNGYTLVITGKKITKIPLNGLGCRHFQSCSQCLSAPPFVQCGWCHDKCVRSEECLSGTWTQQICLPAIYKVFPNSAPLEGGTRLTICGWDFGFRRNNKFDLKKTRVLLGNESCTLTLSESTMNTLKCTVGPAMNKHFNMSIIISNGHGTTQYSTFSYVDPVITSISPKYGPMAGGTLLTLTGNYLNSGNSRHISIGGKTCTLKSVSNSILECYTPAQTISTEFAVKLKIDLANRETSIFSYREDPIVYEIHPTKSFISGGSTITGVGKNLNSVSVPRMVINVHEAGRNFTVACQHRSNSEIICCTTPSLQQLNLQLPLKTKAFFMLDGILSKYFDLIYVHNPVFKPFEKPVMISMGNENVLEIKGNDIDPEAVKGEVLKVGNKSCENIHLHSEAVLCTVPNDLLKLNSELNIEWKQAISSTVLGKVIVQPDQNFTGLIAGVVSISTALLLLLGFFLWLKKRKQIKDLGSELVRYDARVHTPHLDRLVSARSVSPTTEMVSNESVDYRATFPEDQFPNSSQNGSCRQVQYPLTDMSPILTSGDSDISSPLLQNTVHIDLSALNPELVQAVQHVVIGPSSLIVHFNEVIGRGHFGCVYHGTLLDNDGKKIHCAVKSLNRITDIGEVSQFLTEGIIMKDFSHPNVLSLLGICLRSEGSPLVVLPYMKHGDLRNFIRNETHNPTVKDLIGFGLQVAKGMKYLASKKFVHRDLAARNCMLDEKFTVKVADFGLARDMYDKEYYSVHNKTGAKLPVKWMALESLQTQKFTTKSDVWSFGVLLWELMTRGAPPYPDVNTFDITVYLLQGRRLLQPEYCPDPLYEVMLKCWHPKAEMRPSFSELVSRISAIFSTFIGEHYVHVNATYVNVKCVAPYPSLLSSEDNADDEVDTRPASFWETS

`CN1CCC(CC#Cc2c(Oc3ccc(NC(=O)c4cn(C5CCOCC5)c(=O)n(-c5ccc(F)cc5)c4=O)cc3F)ccnc2N)CC1` [Example 60, N-(4-(2-amino-3-(3-(1-methylpiperidin-4-yl)prop-1-ynyl)pyridin-4-yloxy)-3-fluorophenyl)-3-(4-fluorophenyl)-2,4-dioxo-1-(tetrahydro-2H-pyran-4-yl)-1,2,3,4-tetrahydropyrimidine-5-carboxamide]: the figures for the IC50 at c-MET, against AXL and on MER were < 100 nM, < 10 nM and < 10 nM, respectively.

For `C=CCn1cc(C(=O)Nc2ccc(Oc3ccnc(N)c3C#CCN3CCOCC3)c(F)c2)c(=O)n(CC=C)c1=O` [Example 67, 1,3-diallyl-N-(4-(2-amino-3-(3-morpholinoprop-1-ynyl)pyridin-4-yloxy)-3-fluorophenyl)-2,4-dioxo-1,2,3,4-tetrahydropyrimidine-5-carboxamide], the IC50 is < 100 nM on c-MET, < 10 nM on AXL and < 10 nM on MER.

Take `C=CCn1cc(C(=O)Nc2ccc(Oc3ccnc(N)c3C#CC(C)(C)N3CCN(C)CC3)c(F)c2)c(=O)n(CC=C)c1=O` [Example 68, 1,3-diallyl-N-(4-(2-amino-3-(3-methyl-3-(4-methylpiperazin-1-yl)but-1-ynyl)pyridin-4-yloxy)-3-fluorophenyl)-2,4-dioxo-1,2,3,4-tetrahydropyrimidine-5-carboxamide]: the IC50 was < 1000 nM at c-MET, < 1000 nM on AXL and < 100 nM against MER.

`C=CCn1cc(C(=O)Nc2ccc(Oc3ccnc(N)c3C#CCC3CCN(C)CC3)c(F)c2)c(=O)n(CC=C)c1=O` [Example 69, 1,3-diallyl-N-(4-(2-amino-3-(3-(1-methylpiperdin-4-yl)prop-1-ynyl)pyridin-4-yloxy)-3-fluorophenyl)-2,4-dioxo-1,2,3,4-tetrahydropyrimidine-5-carboxamide]: the IC50 on c-MET is < 1000 nM; against AXL, < 100 nM; against MER it was < 100 nM.

On to `C=CCn1cc(C(=O)Nc2ccc(Oc3ccnc(N)c3C#CC(C)(C)N3CCOCC3)c(F)c2)c(=O)n(CC=C)c1=O` [Example 70, 1,3-diallyl-N-(4-(2-amino-3-(3-methyl-3-morpholinobut-1-ynyl)pyridin-4-yloxy)-3-fluorophenyl)-2,4-dioxo-1,2,3,4-tetrahydropyrimidine-5-carboxamide], for which the IC50 on c-MET is < 1000 nM; at AXL, < 1000 nM; on MER it was < 10 nM.

As for `C=CCn1cc(C(=O)Nc2ccc(Oc3ccnc(N)c3C#CCC3CCNCC3)c(F)c2)c(=O)n(CC=C)c1=O` [Example 71, 1,3-dialyl-N-(4-(2-amino-3-(3-(piperidin-4-yl)prop-1-ynyl)pyridin-4-yloxy)-3-fluorophenyl)-2,4-dioxo-1,2,3,4-tetrahydropyrimidine-5-carboxamide], the IC50 at c-MET is < 100 nM; against AXL, < 100 nM; on MER, < 10 nM.

For the compound `C=CC(=O)Nc1cc(Nc2nccc(-c3cn(C)c4ccccc34)n2)c(OC)cc1N(C)CCN(C)C` [osimertinib, reference compound], in the test with HCC827OR (HCC827/OR vs HCC827), the “fold higher resistance than the parental cells, HCC827/OR” value was 3,000 fold.

In the case of “N-(4-(2-amino-3-(3-piperidin-4-yl)prop-1-ynyl)pyridin-4-yloxy)-3-fluorophenyl)-3-cyclohexyl-1-ethyl-2,4-dioxo-1,2,3,4-tetrahydropyrimidine-5-carboxamide [Example 65]”, the IC50 in the test on PC9ER is < 1000 nM; in the test with HCC827ER, < 1000 nM; with HCC827GR it was < 1000 nM; in the test on HCC827OR (72 h, combination of EGFR TKI and inhibitor of Formula (I), EGFR TKI-resistant cells, read-out: Relative cell viability, IC50 (nM) HCC827OR) it was < 10000 nM.

Values taken from patent US20250171426A1, “PYRIMIDINEDIONE-BASED COMPOUNDS AS AXL, C-MET, AND MER INHIBITORS AND METHODS OF USE THEREOF” (CMG Pharmaceutical Co., Ltd., priority 2022, published 2025).
